Read-outs that look alike come from different tables or passages of the source.
Legend:
in vitro [1] = conditions: human
CEM-SS/HIVRF = format: cell-based, HIV1
HUH7-ZikaPRVABC59 = assay: microbe, parasite or virus in culture; format: cell-based; conditions: Zika virus
HCV Replicon = assay: microbe, parasite or virus in culture; format: cell-based; conditions: Hepatitis C virus
in vitro [2] = conditions: human; remark: listed apart in the source
in vitro [3] = assay: in vitro
protein synthesis = conditions: read-out: IC50 protein synthesis inhibition; cited from earlier work

In the case of `Nc1ccn([C@@H]2CS[C@H](CO)O2)c(=O)n1` [3TC, Lamivudine], the CC50 (in vitro [1]) is reported as over 10000 nM.
`Cc1cn([C@H]2C[C@H](N=[N+]=[N-])[C@@H](CO)O2)c(=O)[nH]c1=O` [AZT] gave an EC50 (CEM-SS/HIVRF) of 0.8 nM and a CC50 (CEM-SS) of over 1000 nM.
`CC(C)OC(=O)[C@H](C)N[P@](=O)(OC[C@H]1O[C@@H](n2ccc(=O)[nH]c2=O)[C@](C)(F)[C@@H]1O)Oc1ccccc1` [Sofosbuvir] gave an EC50 (HUH7-ZikaPRVABC59) of 2090 nM, an EC50 (HCV Replicon) of 50 nM and a CC50 (in vitro [2]) of over 10000 nM. It also gave a CC50 (in vitro [3]) of over 1000 nM.
For PAP1, the “increased toxicity to E. coli compared to PAPS1” value (E. coli) is listed as over 10 fold and the IC50 (protein synthesis) is listed as 0.29 nM.
